Like-named read-outs stand apart in the source and are kept apart here.
Tests used:
[1] = molecular target: T1, Ba/F3 Pro B-cell line expressing TEL-human MERTK fusion domain (Homo sapiens, UniProt Q12866); format: cell-based
T1 sequence (Q12866 587-858 limits assumed): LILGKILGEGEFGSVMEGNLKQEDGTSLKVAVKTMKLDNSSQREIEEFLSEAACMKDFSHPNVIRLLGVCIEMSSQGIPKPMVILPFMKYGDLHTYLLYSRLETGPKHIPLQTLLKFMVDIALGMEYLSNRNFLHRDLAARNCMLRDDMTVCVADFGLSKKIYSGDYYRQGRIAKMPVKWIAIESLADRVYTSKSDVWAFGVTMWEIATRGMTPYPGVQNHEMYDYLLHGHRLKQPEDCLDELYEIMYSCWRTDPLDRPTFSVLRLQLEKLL
Procedure, shortened: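 Ba/F3 cells dependent on BCR-AXL or TEL-MERTK fusion kinase (IL3-free; IL3 only for control lines) treated with compound 48 h at 37 °C, 0.25% DMSO. Viability by CellTiter-Glo luminescence; IC50 for half-maximal inhibition of survival from 4-parameter variable-slope fit.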

[2] = molecular target: T2, human AXL cytoplasmic domain (Homo sapiens, UniProt P30530); assay: Assay 1b AXL HTRF KinEASE-TK assay; format: biochemical
T2 construct: human AXL cytoplasmic domain (Thermo Fisher A31515); purchased Thermo Fisher A31515
T2 sequence (P30530 473-894 limits assumed): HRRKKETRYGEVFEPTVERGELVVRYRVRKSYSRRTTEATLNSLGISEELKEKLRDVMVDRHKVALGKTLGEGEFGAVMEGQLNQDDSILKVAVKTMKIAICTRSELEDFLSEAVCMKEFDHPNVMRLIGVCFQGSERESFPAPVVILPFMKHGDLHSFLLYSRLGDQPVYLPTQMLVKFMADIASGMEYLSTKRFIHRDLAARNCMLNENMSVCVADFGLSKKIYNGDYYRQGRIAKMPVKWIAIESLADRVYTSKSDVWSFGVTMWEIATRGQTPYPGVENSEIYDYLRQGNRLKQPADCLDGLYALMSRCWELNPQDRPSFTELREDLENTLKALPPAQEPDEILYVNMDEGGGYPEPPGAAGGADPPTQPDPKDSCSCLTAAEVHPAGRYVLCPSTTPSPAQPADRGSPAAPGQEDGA
Procedure, shortened: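 Recombinant cytoplasmic domain (5 nM) in kinase buffer with 5 mM MgCl2, 1 mM MnCl2, 1 mM DTT, 50 nM SEB plus test compounds; reaction 30 min at room temperature. EDTA-containing detection with TK antibody-cryptate/streptavidin-XL665 for 60 min; HTRF 665/620 ratio read. IC50 from 4-parameter logistic fit with variable slope.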

[3] = molecular target: T3, Ba/F3 Pro B-cell line expressing BCR-human AXL kinase domain fusion protein (Homo sapiens, UniProt P30530); assay: Assay 5 Ba/F3 cell survival assay, BCR-Axl; format: cell-based; conditions: read-out: BCR-Axl Ba/F3 IC50, 48 h, CellTiter-Glo
T3 construct: P11274 (Breakpoint cluster region protein)
T3 sequence (P30530 536-807 limits assumed): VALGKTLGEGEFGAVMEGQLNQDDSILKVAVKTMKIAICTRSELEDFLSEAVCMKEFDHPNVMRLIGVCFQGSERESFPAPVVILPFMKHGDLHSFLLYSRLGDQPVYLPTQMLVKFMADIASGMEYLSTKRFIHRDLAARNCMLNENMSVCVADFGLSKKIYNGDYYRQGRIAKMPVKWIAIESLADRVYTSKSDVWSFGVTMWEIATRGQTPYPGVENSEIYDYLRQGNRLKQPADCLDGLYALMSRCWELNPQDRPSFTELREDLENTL
Method: Assay 5—Ba/F3 Cell Survival Assays.
The inhibitory potencies of compounds were assessed in a Ba/F3 cell survival assay, using the Ba/F3 Pro B-cell line, recombinantly expressing a BCR-human AXL kinase domain fusion protein (pACD320/AXL, Advanced Cellular Dynamics Inc), TEL-human MERTK fusion domain (pACD1000/MERTK, Advanced Cellular Dynamics Inc), TEL-human Tyro3 fusion domain (pACD1000/TYRO3, Advanced Cellular Dynamics Inc), or control TEL-none (ACD320, Advanced Cellular Dynamics Inc) BRC-none constructs (ACD1000, Advanced Cellular Dynamics Inc). 10 ng/mL recombinant murine IL3 (R&D, 403-ML-010) was included in the media when propagating negative control TEL-none or BCR-none lines only. […] The final assay DMSO concentration was 0.25%. Compound incubations were conducted for 48 h at 37° C./5% CO2, after which cell plate was equilibrated at room temperature for 20 minutes prior to assessing viability. 15 μl of Promega CellTiter-Glo reagent (G7572) was added to each well for 2 min on an orbital shaker to induce cell lysis.
The plate was then equilibrated for 5 min at room temperature and luminescence read on a BMG Pherastar FSX using the LUM plus optic module. […] Competition curves were then fit to a 4 parameter logistic equation including a variable slope factor to determine the IC50 (compound concentration causing a half-maximal inhibition of cell survival).

[4] = molecular target: T4, human MERTK cytoplasmic domain (Homo sapiens, UniProt Q12866); assay: biochemical
T4 construct: human MERTK cytoplasmic domain (Carna Biosciences 08-108); purchased Carna Biosciences 08-108
T4 sequence (Q12866 527-999): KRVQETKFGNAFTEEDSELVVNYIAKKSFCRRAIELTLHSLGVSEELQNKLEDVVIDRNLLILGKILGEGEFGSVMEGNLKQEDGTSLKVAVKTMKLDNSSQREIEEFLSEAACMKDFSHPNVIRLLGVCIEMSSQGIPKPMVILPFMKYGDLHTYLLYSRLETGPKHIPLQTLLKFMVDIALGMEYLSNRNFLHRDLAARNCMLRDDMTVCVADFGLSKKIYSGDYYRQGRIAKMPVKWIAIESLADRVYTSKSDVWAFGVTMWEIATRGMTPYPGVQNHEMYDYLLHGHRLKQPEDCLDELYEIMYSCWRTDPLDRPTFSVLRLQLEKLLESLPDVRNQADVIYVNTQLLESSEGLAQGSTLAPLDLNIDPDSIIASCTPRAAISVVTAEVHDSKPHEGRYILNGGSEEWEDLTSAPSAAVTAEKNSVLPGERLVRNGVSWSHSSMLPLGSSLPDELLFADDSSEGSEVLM
Method: Assay 1a—MERTK HTRF KinEASE-TK Assay
The enzymatic reaction was carried out for 30 min at room temperature. 10 μL TK Antibody-Cryptate/Streptavidin-XL665 (Cisbio 610SAXLG) was then added for 60 min, including EDTA containing detection buffer (Cisbio 62SDBRDF) to stop the reaction.

[5] = molecular target: T5, Ba/F3 Pro B-cell line expressing TEL-human Tyro3 fusion domain (Homo sapiens, UniProt Q06418); format: cell-based; conditions: cell survival, 48 h, CellTiter-Glo
T5 sequence (Q06418 518-790 limits assumed): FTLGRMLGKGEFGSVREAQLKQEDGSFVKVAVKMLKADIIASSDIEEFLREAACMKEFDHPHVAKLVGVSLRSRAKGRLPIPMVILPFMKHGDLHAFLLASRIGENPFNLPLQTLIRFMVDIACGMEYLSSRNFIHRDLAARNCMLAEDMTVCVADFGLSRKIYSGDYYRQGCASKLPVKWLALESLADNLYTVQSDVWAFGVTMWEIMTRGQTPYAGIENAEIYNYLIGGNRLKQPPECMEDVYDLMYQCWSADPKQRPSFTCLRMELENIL

[6] = cell survival, 48 h, CellTiter-Glo; read-out: TEL-MERTK Ba/F3 IC50
[7] = 30 uM ATP, read-out: Assay 1a Mer IC50 30 uM ATP

Row | SMILES | IC50 [2] | IC50 [4, 7] | IC50 ([2]; # 1 μM ATP used in assay, read-out: Assay 1b Axl IC50) | IC50 [1, 6] | IC50 [3] | IC50 [5] | IC50 ([1]; read-out: TEL-MERTK Ba/F3 IC50; cell survival, 48 h, CellTiter-Glo) | IC50 [4]
1 | CC(C)n1cc(C(=O)Nc2ccc(Oc3ccnc4cnc(C(=O)NC5CCN(C)CC5)cc34)cc2)c(=O)n(-c2ccc(F)cc2)c1=O [Example 8.2, 4-[4-[[3-(4-fluorophenyl)-1-isopropyl-2,4-dioxo-pyrimidine-5-carbonyl]amino]phenoxy]-N-(1-methyl-4-piperidyl)-1,7-naphthyridine-6-carboxamide] | 10 nM | 10 nM |  | 30 nM | 3 nM | 120 nM |  | 
2 | CC(C)n1cc(C(=O)Nc2ccc(Oc3ccnc4cnc(C(=O)NC5CCN(C)CC5)cc34)cc2)c(=O)n(-c2ccc(F)cn2)c1=O [Example 9, 4-[4-[[3-(5-Fluoro-2-pyridyl)-1-isopropyl-2,4-dioxo-pyrimidine-5-carbonyl]amino]phenoxy]-N-(1-methyl-4-piperidyl)-1,7-naphthyridine-6-carboxamide] | 11 nM | 14 nM |  | 85 nM | 6 nM | 252 nM |  | 
3 | CC(C)n1cc(C(=O)Nc2ccc(Oc3ccnc4cnc(C(=O)NC5CCN(C)CC5)cc34)cc2)c(=O)n(-c2cc(F)cc(F)c2)c1=O [Example 9.1, 4-[4-[[3-(3,5-difluorophenyl)-1-isopropyl-2,4-dioxo-pyrimidine-5-carbonyl]amino]phenoxy]-N-(1-methyl-4-piperidyl)-1,7-naphthyridine-6-carboxamide] | 13 nM | 12 nM |  | > 2500 nM | 25 nM | > 2500 nM |  | 
4 | CC(C)n1cc(C(=O)Nc2ccc(Oc3ccnc4cnc(N5CCN(C6COC6)CC5)cc34)cn2)c(=O)c(-c2ccc(F)cc2)c1 [Example 20.2, 5-(4-fluorophenyl)-1-isopropyl-N-[5-[[6-[4-(oxetan-3-yl)piperazin-1-yl]-1,7-naphthyridin-4-yl]oxy]-2-pyridyl]-4-oxo-pyridine-3-carboxamide] | 7 nM | 1 nM |  | 5 nM | 2 nM | 220 nM |  | 
5 | CC(C)(C)OC(=O)N1CCC(c2cc3c(Oc4ccc(NC(=O)c5cccn(-c6ccc(F)cc6)c5=O)nc4)ccnc3cn2)C1 (stereo not drawn) [Example 16.1, tert-butyl 3-[4-[[6-[[1-(4-fluorophenyl)-2-oxo-pyridine-3-carbonyl]amino]-3-pyridyl]oxy]-1,7-naphthyridin-6-yl]pyrrolidine-1-carboxylate] | 27 nM | 4 nM |  | 70 nM | 76 nM | 1930 nM |  | 
6 | O=C(Nc1ccc(Oc2ccnc3cnc(N4CCNCC4)cc23)cc1)c1cccc(-c2ccc(F)cc2)[n+]1[O-] [Example 12.6, 6-(4-fluorophenyl)-1-oxido-N-[4-[(6-piperazin-1-yl-1,7-naphthyridin-4-yl)oxy]phenyl]pyridin-1-ium-2-carboxamide] | 31 nM | 3 nM |  | 16 nM | 6 nM | 110 nM |  | 
7 | CN1CCC(NC(=O)c2cc3c(Oc4ccc(NC(=O)c5cccn(-c6ccc(F)cc6)c5=O)nc4)ccnc3cn2)CC1 [Example 11, 4-[[6-[[1-(4-fluorophenyl)-2-oxo-pyridine-3-carbonyl]amino]-3-pyridyl]oxy]-N-(1-methyl-4-piperidyl)-1,7-naphthyridine-6-carboxamide] | 77 nM | 4 nM |  | 52 nM | 32 nM | 251 nM |  | 
8 | CC(C)C(=O)N1CCC(c2cc3c(Oc4ccc(NC(=O)c5cccn(-c6ccc(F)cc6)c5=O)nc4)ccnc3cn2)CC1 [Example 22, 1-(4-fluorophenyl)-N-[5-[[6-[1-(2-methylpropanoyl)-4-piperidyl]-1,7-naphthyridin-4-yl]oxy]-2-pyridyl]-2-oxo-pyridine-3-carboxamide] | 5 nM |  |  |  | 10 nM | > 2500 nM | 10 nM | 1 nM

Further lines, with some results ahead:

Row | IC50 [2] | IC50 [4, 7] | IC50 ([2]; # 1 μM ATP used in assay, read-out: Assay 1b Axl IC50) | SMILES | IC50 [1, 6] | IC50 [3] | IC50 [5] | IC50 ([1]; read-out: TEL-MERTK Ba/F3 IC50; cell survival, 48 h, CellTiter-Glo) | IC50 [4]
9 |  | 17 nM | 4 nM | CC(C)n1cc(C(=O)Nc2ccc(Oc3ccnc4cnc(C(=O)NC5CC6CCC(C5)N6C)cc34)cn2)c(=O)n(-c2ccc(F)cc2)c1=O (stereo not drawn) [Example 27.2, 4-[[6-[[3-(4-fluorophenyl)-1-isopropyl-2,4-dioxo-pyrimidine-5-carbonyl]amino]-3-pyridyl]oxy]-N-(8-methyl-8-azabicyclo[3.2.1]octan-3-yl)-1,7-naphthyridine-6-carboxamide] | 49 nM | 13 nM | 376 nM |  | 
10 | 360 nM | 19 nM |  | Cc1nc(NC(=O)c2cccn(-c3ccc(F)cc3)c2=O)ccc1Oc1ccnc2cnc(C(=O)NC3CCN(C)CC3)cc12 [Example 26, 4-[[6-[[1-(4-fluorophenyl)-2-oxo-pyridine-3-carbonyl]amino]-2-methyl-3-pyridyl]oxy]-N-(1-methyl-4-piperidyl)-1,7-naphthyridine-6-carboxamide] | 55 nM | 83 nM | 1420 nM |  | 
11 | 296 nM | 43 nM |  | Cc1cc(NC(=O)c2cccn(-c3ccccc3)c2=O)ccc1Oc1ccnc2cnc(C(=O)NC3CCN(C)CC3)cc12 [Example 34, 4-[2-Methyl-4-[(2-oxo-1-phenyl-pyridine-3-carbonyl)amino]phenoxy]-N-(1-methyl-4-piperidyl)-1,7-naphthyridine-6-carboxamide] | 144 nM | 73 nM | 128 nM |  | 
12 | 46 nM | 9 nM |  | O=C(Nc1ccc(Oc2ccnc3cnc(C4CCNCC4)cc23)cn1)c1cccn(-c2ccc(F)cc2)c1=O [Example 21.1, 1-(4-fluorophenyl)-2-oxo-N-[5-[[6-(4-piperidyl)-1,7-naphthyridin-4-yl]oxy]-2-pyridyl]pyridine-3-carboxamide] | 35 nM | 46 nM | 861 nM |  | 

Source: patent US20230203029A1 (priority 2020, published 2023)
